A short description of this series: Human HepG2 cell viability assay in 384 well format. The series is classed as toxicity, cell-based. As to conditions: HepG2 cells, read-out: Inhibition. Also noted: dose 125 nL, time 70.5 hour; concentration not given beside the values.
Turning to `Cc1cc2ncn(C(=O)N3CCCCC3)c2cc1C`, the cytotoxicity at 70.5 h is -7.84%.

As to `O=C(c1cn(CC(=O)N2CCCCC2)c2ccccc12)C1CC1`, the cytotoxicity at 70.5 h came to 24%.

On to `CNC(=O)C1(CCCc2cnccn2)CCN1Cc1ccc(C)cc1` (stereo not drawn), for which the cytotoxicity at 70.5 h is -5.64%.

As to `CC(=O)N1CCN(c2cc(C)ncn2)CC(CO)C1` (stereo not drawn), the cytotoxicity at 70.5 h was -3.4%.

On to `CC(=O)N1CCC1c1cc(N2CCSCC2)nc(C)n1` (stereo not drawn), for which the cytotoxicity at 70.5 h is -1.98%.

For `COc1ccc2c(c1)C(=O)NC1(CC2)CCN(Cc2cccnc2)C1` (stereo not drawn), the cytotoxicity at 70.5 h was -2.38%.

On to `CC(=O)N1CCC(c2n[nH]cc2-c2ccnc(N)c2)C1` (stereo not drawn), for which the cytotoxicity at 70.5 h was 15.7%.

As for `O=C(c1cnccn1)N1CCCC(Cc2ccccn2)C1` (stereo not drawn), the cytotoxicity at 70.5 h turned out to be 4.02%.

As to `Cc1c[nH]c(C2COCCN2C(=O)c2n[nH]c(=O)c3ccccc23)n1` (stereo not drawn), the cytotoxicity at 70.5 h was -13.4%.

Turning to `CCCC(=O)N1CCCC1(C)c1nc(C)no1` (stereo not drawn), the cytotoxicity at 70.5 h is -14.9%.

As for `COc1ccc(CNC(Cc2ccsc2)c2ncccc2C)cc1OC` (stereo not drawn), the cytotoxicity at 70.5 h was -4.5%.

Take `O=c1c(CN2CC3CCCN3C[C@@H]2CCO)coc2ccc(Cl)cc12` (stereo partly drawn): the cytotoxicity at 70.5 h was -6.6%.

Turning to `CC(=O)N1CCN(c2cnccn2)CC(CO)C1` (stereo not drawn), the cytotoxicity at 70.5 h is -5.92%.

On to `CC(C)N1CCCC1c1cc(CCO)[nH]n1` (stereo not drawn), for which the cytotoxicity at 70.5 h is -9.45%.

With `c1ccc2ncc(CC3CCNCC3)cc2c1`, the cytotoxicity at 70.5 h turned out to be 13.4%.

Consider `COc1ccc(OCCc2cc(C3CNCCO3)nn2C)cc1` (stereo not drawn), for which the cytotoxicity at 70.5 h was 12.2%.

For `CCCc1nnsc1C(=O)N1CCCC1(C)C(=O)N1CCOCC1` (stereo not drawn), the cytotoxicity at 70.5 h is -9.09%.

On to `CN1CCCC1c1cncc(C(=O)NCCN2CCCC2)n1` (stereo not drawn), for which the cytotoxicity at 70.5 h is -14.2%.

Consider `CNc1ncc(C(=O)N2CCOC(C(=O)NC3CCCC3)C2)cn1` (stereo not drawn), for which the cytotoxicity at 70.5 h is -9.73%.

As to `COCCC(=O)N1C[C@@H](c2cccc(OC)c2)[C@@]2(CCCCC(=O)N2)C1`, the cytotoxicity at 70.5 h was -14.8%.

As for `COCC(=O)N1C[C@@H](c2cccc(OC)c2)[C@@]2(CCCCC(=O)N2)C1`, the cytotoxicity at 70.5 h is -10.3%.

With `Oc1cc(C2CCCCN2Cc2ccsc2)nc(-c2ccncc2)n1` (stereo not drawn), the cytotoxicity at 70.5 h is -9.16%.

With `CCNC(=O)Nc1ncc(-c2cccnc2)s1`, the cytotoxicity at 70.5 h is -6.64%.

Consider `CNC(=O)C1CN(Cc2cc(C)on2)CCN(C2CCOCC2)C1` (stereo not drawn), for which the cytotoxicity at 70.5 h was -7.77%.

In the case of `c1cc(CCNc2ccc(CC3CCNC3)cn2)ccn1` (stereo not drawn), the cytotoxicity at 70.5 h was -4.08%.

Turning to `CNC(=O)c1ccc(C2CN(CC(=O)N(C)C)CCO2)nc1` (stereo not drawn), the cytotoxicity at 70.5 h is -5.57%.

With `CNC(=O)c1ccc(C2CN(Cc3ccc(F)cc3)CCO2)nc1` (stereo not drawn), the cytotoxicity at 70.5 h is -1.99%.

As to `CCN1CCC(N2CCC(c3nc(C)cc(C)n3)C2)CC1` (stereo not drawn), the cytotoxicity at 70.5 h was -2.1%.

As for `O=C(O)c1ccccc1-n1cnc(CN2CCCc3ccccc32)c1`, the cytotoxicity at 70.5 h is -2.75%.

Turning to `c1cc2cc[nH]c2c(CC2CN(Cc3cscn3)C2)n1`, the cytotoxicity at 70.5 h was -3.59%.

Regarding `COCC(=O)NC(CC(C)C)c1nc2cccnc2n1C` (stereo not drawn), the cytotoxicity at 70.5 h is 20.7%.

As for `Cc1cc2nccc(C3CCCN(C(=O)c4ccccc4F)C3)n2n1` (stereo not drawn), the cytotoxicity at 70.5 h is -1.93%.

Take `O=C(Cc1ccc(F)c(F)c1)NC1COc2ccccc2C1=O` (stereo not drawn): the cytotoxicity at 70.5 h is -0.695%.

Regarding `CC(O)CN1CCN(Cc2cccc(C#N)c2)CC1` (stereo not drawn), the cytotoxicity at 70.5 h is -4.63%.

On to `Cc1nn(C)c(C)c1NC(=O)CNC(c1ccccc1)C1CCC1` (stereo not drawn), for which the cytotoxicity at 70.5 h is -4.47%.

`Cc1cnn(CCNCc2nccn2Cc2ccccc2)c1`: the cytotoxicity at 70.5 h worked out at 1.16%.

For `COC(=O)CC(NC(=O)c1cccc(N2CCCC2=O)c1)C(=O)OC` (stereo not drawn), the cytotoxicity at 70.5 h worked out at 0.259%.

For `COCCNc1nc(-c2ccc(S(=O)(=O)N3CCCCC3)cc2)cs1`, the cytotoxicity at 70.5 h stood at 0.097%.

Take `Cn1cnnc1S(=O)(=O)Cc1cc(Cl)c2c(c1)OCCO2`: the cytotoxicity at 70.5 h is -1.41%.

Take `COC(=O)CC(NC(=O)c1cccc(CS(C)(=O)=O)c1)c1cccs1` (stereo not drawn): the cytotoxicity at 70.5 h is -4.71%.

With `Cc1ccc(-c2nc(CC(=O)N3CCCC(NC(=O)C(C)C)C3)cs2)o1` (stereo not drawn), the cytotoxicity at 70.5 h was -4.05%.

As for `Cc1ccc(-c2nc(CC(=O)NCC(C)N3CCOCC3)cs2)o1` (stereo not drawn), the cytotoxicity at 70.5 h was -3.4%.

Take `Cn1ccnc1Sc1ncc(C(=O)N2CCCCC2)cc1Cl`: the cytotoxicity at 70.5 h was -4.57%.

For the molecule `CCNC(=O)c1cnc(Sc2nccn2C)c(Cl)c1`, the cytotoxicity at 70.5 h was -2.03%.

As to `O=C(c1cn(-c2ccc(C(F)(F)F)cn2)nn1)N1CCCCCC1`, the cytotoxicity at 70.5 h was -3.98%.

As to `CC1CCN(C(=O)c2cn(-c3ccc(C(F)(F)F)cn3)nn2)CC1`, the cytotoxicity at 70.5 h is -0.268%.

For the molecule `CCc1ccc2c(c1)C(CCNC(=O)CSC(F)(F)F)C(=O)N2` (stereo not drawn), the cytotoxicity at 70.5 h was -1.42%.

Consider `Cc1ccccc1CNc1ccc(S(N)(=O)=O)c(C(F)(F)F)c1`, for which the cytotoxicity at 70.5 h was 4.82%.

For `Cc1ccc(C(=O)N2CCCC(N(C)C(=O)OC(C)(C)C)C2)o1` (stereo not drawn), the cytotoxicity at 70.5 h came out at 2.04%.

Take `CC(c1ccccc1F)N(C(=O)CSCC(N)=O)C1CC1` (stereo not drawn): the cytotoxicity at 70.5 h worked out at 5.29%.

Regarding `Cc1cc(NC(=O)c2ccc(N3CCOCC3)cc2)[nH]n1`, the cytotoxicity at 70.5 h was -1.56%.

Consider `Cc1nc(CNC(=O)CCCc2cccs2)no1`, for which the cytotoxicity at 70.5 h was -5.14%.

Turning to `CC(=O)Nc1cc(F)c(S(=O)(=O)N(C)CC2CCC2)c(F)c1`, the cytotoxicity at 70.5 h is -0.0857%.

Regarding `CCOc1cccc(CNC(=O)C(C)(C)C#N)c1OC(F)F`, the cytotoxicity at 70.5 h is -2.64%.

For the molecule `CN(C(=O)OC(C)(C)C)C1CCN(C(=O)c2ccc(Cl)o2)C1` (stereo not drawn), the cytotoxicity at 70.5 h was -3.64%.

As for `C=C(C)CN(CC)S(=O)(=O)c1c(F)cc(NC(C)=O)cc1F`, the cytotoxicity at 70.5 h was -3.3%.

Regarding `COCCNc1nc(-c2ccc(S(=O)(=O)N3CCCCCC3)cc2)cs1`, the cytotoxicity at 70.5 h was -5.83%.

In the case of `CC(C)N1CCCC(CNC(=O)Cc2csc(-c3cccnc3)n2)C1` (stereo not drawn), the cytotoxicity at 70.5 h is -0.239%.

For `CC(C#N)CN(C)Cc1c(Cl)ccc2cccnc12` (stereo not drawn), the cytotoxicity at 70.5 h turned out to be 23%.

In the case of `Cc1nc(-c2cccs2)ccc1C(=O)N1CCN(CC(C)O)CC1` (stereo not drawn), the cytotoxicity at 70.5 h is -2.84%.

As to `CCn1cc(NC(=O)N2CCN(CCSc3ccccc3)CC2)cn1`, the cytotoxicity at 70.5 h is -7.68%.

Turning to `O=C(CSc1nnc(N2CCCC2)s1)NC(=O)Nc1ccccc1`, the cytotoxicity at 70.5 h was -5.54%.

With `Cc1nnc2n1CCN(C(=O)c1ccc(Cn3cccc3)cc1)C2`, the cytotoxicity at 70.5 h was -7.82%.

With `Cc1ccc(NC(=O)N2CCC(CO)(Nc3ccccc3)CC2)cc1`, the cytotoxicity at 70.5 h stood at 17.1%.

Regarding `Cc1cccc(NC(=O)N2CCC(CO)(Nc3ccccc3)CC2)c1`, the cytotoxicity at 70.5 h was -5.03%.

As to `O=C1NCCN1C1CCN(CC(O)c2ccccc2F)CC1` (stereo not drawn), the cytotoxicity at 70.5 h was -7.23%.

On to `Cc1ncccc1C(=O)Nc1cccc(C[S+](C)[O-])c1C` (stereo not drawn), for which the cytotoxicity at 70.5 h is 0.697%.

In the case of `Cc1cc(C)c2ncc(C#N)c(NC3CCN(CC(N)=O)CC3)c2c1`, the cytotoxicity at 70.5 h is 1.44%.

For `Cc1cc(N2CCN(Cc3cn(C)nc3C)CC2)cc(C2CCCN2)n1` (stereo not drawn), the cytotoxicity at 70.5 h was -1.66%.

Take `Cc1nc(Nc2nncs2)cc(C2CCCN2)n1` (stereo not drawn): the cytotoxicity at 70.5 h was -4.59%.

Turning to `OC1CCN(c2cncc(CCC3CCCN3)n2)CC1` (stereo not drawn), the cytotoxicity at 70.5 h was -4.54%.

Turning to `COc1cccc2c(C)c(C(=O)N3CCNCC3C(N)=O)[nH]c12` (stereo not drawn), the cytotoxicity at 70.5 h was -7.8%.

As for `FC(F)(F)c1ccc(-c2cnc(C3CCCN3)cn2)cc1` (stereo not drawn), the cytotoxicity at 70.5 h was found to be 13.6%.

These data come from ChEMBL document CHEMBL3507680, “University of Dundee, Gates Library screen for HepG2 cell viability”.
